Laboratory results: patent US7261906B2, “Anti-cancer therapy agent of arsenic hexoxide (As4O6) of a natural chemical substance and its pharmaceutical composition” (priority 1998, dated 2007)

Test system: colon26-M3.1 carcinoma cells
Assay: Inhibitory effect of intravenously-administered HD-2 on cancer metastasis (lung)
Format: in vivo, mice
Method: B16-BL6 melanoma cells or colon26-M3.1 carcinoma cells were inoculated into mice and number of metastatic tumor masses appearing in lungs was counted. […] The peak activity was observed a: 1-mg dose with very high anticancer efficacy (86%). […] This indicated oral administration of HD-2 was quite effective for treatment of established cancer.
In this experiment, HD-2 was administered intravenously with dosage less than 500 mg/kg body weight per day.

[1] = 1 μg intravenous administration +1
[2] = 10 μg intravenous administration +1
[3] = 10 μg intravenous administration +7
[4] = 100 μg intravenous administration +1

SMILES: O1[As]2O[As]3O[As]1O[As](O2)O3 [HD-2, arsenic hexoxide (As4O6)]
- inhibitory rate [1]: 66.5%
- number of metastatic mass, mean ± SD [1]: 52 ± 28
- inhibitory rate [2]: 92.9%
- number of metastatic mass, mean ± SD [2]: 11 ± 19
- inhibitory rate [3]: 67.5%
- number of metastatic mass, mean ± SD [3]: 50 ± 11
- inhibitory rate [4]: 90.3%
- number of metastatic mass, mean ± SD [4]: 15 ± 15
- anti-metastatic efficacy (10- to 100-μg intravenous): above 90%
